# From ChEMBL document CHEMBL1201862, “PubChem BioAssay data set” (2004)
#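 All cell lines were grown in 96-well plates and treated with compound for 48 hours. At the GI50, growth is halved.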 Active and inactive are the calls of the source. No stated cut-off is given here; in the data, active = GI50 up to about 1.1 µM and inactive = higher.
# How the values were obtained:
# Assay in all cases: growth of human tumour cells (NCI), 48 h
# 786-0 = test system: 786-0
# A549 = test system: A549
# CAKI-1 = test system: CAKI-1
# COLO 205 = test system: COLO 205
# HCT-116 = test system: HCT-116
# HCT-15 = test system: HCT-15
# LOX IMVI = test system: LOX IMVI
# MOLT-4 = test system: MOLT-4
# NCI-H23 = test system: NCI-H23
# NCI-H460 = test system: NCI-H460
# OVCAR-4 = test system: OVCAR-4
# OVCAR-5 = test system: OVCAR-5
# PC-3 = test system: PC-3
# SF-268 = test system: SF-268
# SF-295 = test system: SF-295
# SW-620 = test system: SW-620
# DU-145 = test system: DU-145
# RXF 393 = test system: RXF 393
Compound,GI50 (786-0),GI50 (A549),GI50 (CAKI-1),GI50 (COLO 205),GI50 (HCT-116),GI50 (HCT-15),GI50 (LOX IMVI),GI50 (MOLT-4),GI50 (NCI-H23),GI50 (NCI-H460),GI50 (OVCAR-4),GI50 (OVCAR-5),GI50 (PC-3),GI50 (SF-268),GI50 (SF-295),GI50 (SW-620),GI50 (DU-145),GI50 (RXF 393)
Cc1[nH]c2ccccc2c1-c1cc(-c2cc(-c3c(C)[nH]c4ccccc34)nc(N)n2)nc(N)n1,> 100 µM (inactive),> 100 µM (inactive),> 100 µM (inactive),> 100 µM (inactive),> 100 µM (inactive),> 100 µM,> 100 µM (inactive),> 100 µM (inactive),> 100 µM (inactive),> 100 µM (inactive),> 100 µM (inactive),> 100 µM (inactive),> 100 µM (inactive),> 100 µM (inactive),> 100 µM (inactive),> 100 µM (inactive),–,–
C1CSCCSCCS1,> 100 µM (inactive),> 100 µM (inactive),–,> 100 µM (inactive),> 100 µM (inactive),> 100 µM,> 100 µM (inactive),> 100 µM (inactive),> 100 µM (inactive),> 100 µM (inactive),> 100 µM (inactive),> 100 µM (inactive),> 100 µM (inactive),> 100 µM (inactive),> 100 µM (inactive),> 100 µM (inactive),> 100 µM (inactive),> 100 µM (inactive)
Cc1nnc2n(c1=O)CCCN2C,> 100 µM (inactive),> 100 µM (inactive),–,> 100 µM (inactive),> 100 µM (inactive),> 100 µM,> 100 µM (inactive),> 100 µM (inactive),> 100 µM (inactive),> 100 µM (inactive),> 100 µM (inactive),> 100 µM (inactive),> 100 µM (inactive),> 100 µM (inactive),> 100 µM (inactive),> 100 µM (inactive),> 100 µM (inactive),> 100 µM (inactive)
COc1c2cc(C(C)(C)C)cc1CSCc1cc(C(C)(C)C)cc(c1OC)CCCCC2,> 50 µM (inactive),37.7 µM (inactive),–,> 50 µM (inactive),27.4 µM (inactive),> 50 µM,–,29.6 µM (inactive),36.7 µM (inactive),31.6 µM (inactive),–,> 50 µM (inactive),22.4 µM (inactive),46.2 µM (inactive),17 µM (inactive),> 50 µM (inactive),31.8 µM (inactive),–
O=[N+]([O-])c1ccc2nc3n(c2c1)C(c1c(F)cccc1F)SC3 (centres undefined),> 100 µM (inactive),> 10 µM (inactive),–,–,> 100 µM (inactive),–,> 100 µM (inactive),> 100 µM (inactive),> 100 µM (inactive),> 100 µM (inactive),–,> 100 µM (inactive),> 100 µM (inactive),–,89.5 µM (inactive),> 100 µM (inactive),> 100 µM (inactive),–
Nc1ccc2c(O)cc(O)nc2n1,> 100 µM (inactive),> 100 µM (inactive),> 100 µM (inactive),> 100 µM (inactive),> 100 µM (inactive),> 100 µM,–,> 100 µM (inactive),> 100 µM (inactive),> 100 µM (inactive),> 100 µM (inactive),> 100 µM (inactive),> 100 µM (inactive),> 100 µM (inactive),> 100 µM (inactive),> 100 µM (inactive),> 100 µM (inactive),> 100 µM (inactive)
c1csc(-c2cc(-c3cccs3)c(-c3ccsc3)s2)c1,> 100 µM (inactive),> 100 µM (inactive),> 100 µM (inactive),55.5 µM (inactive),> 100 µM (inactive),19.2 µM,> 100 µM (inactive),> 100 µM (inactive),> 100 µM (inactive),> 100 µM (inactive),> 100 µM (inactive),–,> 100 µM (inactive),> 100 µM (inactive),> 100 µM (inactive),> 100 µM (inactive),> 100 µM (inactive),–
CCOC(=O)C1=C(C#N)S(=O)(=O)c2c(oc(C)c2C)N1,> 100 µM (inactive),> 100 µM (inactive),> 100 µM (inactive),> 100 µM (inactive),> 100 µM (inactive),> 100 µM,> 100 µM (inactive),> 100 µM (inactive),> 100 µM (inactive),> 100 µM (inactive),> 100 µM (inactive),> 100 µM (inactive),> 100 µM (inactive),> 100 µM (inactive),> 100 µM (inactive),> 100 µM (inactive),> 100 µM (inactive),–
CCOC(=O)CCCNC(=O)CCCCC(=O)N(C)C,> 100 µM (inactive),> 100 µM (inactive),> 100 µM (inactive),> 100 µM (inactive),> 100 µM (inactive),> 100 µM,> 100 µM (inactive),> 100 µM (inactive),> 100 µM (inactive),> 100 µM (inactive),–,> 100 µM (inactive),> 100 µM (inactive),> 100 µM (inactive),> 100 µM (inactive),> 100 µM (inactive),> 100 µM (inactive),–
[N-]=[N+]=NCN1C(=O)C2C3C=CC(C2C1=O)C1C2C(=O)N(CN=[N+]=[N-])C(=O)C2C31 (centres undefined),> 100 µM (inactive),> 100 µM (inactive),> 100 µM (inactive),> 100 µM (inactive),> 100 µM (inactive),> 100 µM,> 100 µM (inactive),–,> 100 µM (inactive),> 100 µM (inactive),–,–,> 100 µM (inactive),> 100 µM (inactive),60 µM (inactive),> 100 µM (inactive),> 100 µM (inactive),–
CC(C)C1(Cl)CCC2C3(C)CCCC(C)(C(=O)O)C3CC(Cl)C2(Cl)C1Cl (centres undefined),32.6 µM (inactive),23.5 µM (inactive),43 µM (inactive),18 µM (inactive),28.2 µM (inactive),36.6 µM,33.8 µM (inactive),19.4 µM (inactive),54.2 µM (inactive),23.9 µM (inactive),24.8 µM (inactive),22.4 µM (inactive),34.6 µM (inactive),45 µM (inactive),–,24.8 µM (inactive),–,–
COc1ccc(CN=C(N)N)c2ccccc12,12.7 µM (inactive),43.1 µM (inactive),20.7 µM (inactive),15.8 µM (inactive),24.6 µM (inactive),> 100 µM,24.8 µM (inactive),48.3 µM (inactive),24.3 µM (inactive),–,–,22.8 µM (inactive),17.7 µM (inactive),12.1 µM (inactive),2.7 µM (inactive),41.2 µM (inactive),57.7 µM (inactive),33.7 µM (inactive)
COc1cccc(-c2nc(-c3cnccn3)n(C/C=C/c3ccccc3)n2)c1,> 10 µM (inactive),> 10 µM (inactive),–,–,–,> 10 µM,> 10 µM (inactive),> 10 µM (inactive),> 10 µM (inactive),> 10 µM (inactive),> 10 µM (inactive),> 10 µM (inactive),> 10 µM (inactive),> 10 µM (inactive),> 10 µM (inactive),> 10 µM (inactive),–,–
O=c1c2cc([N+](=O)[O-])ccc2oc2nc3n(c(=O)c12)CCCS3,66.8 µM (inactive),> 100 µM (inactive),> 100 µM (inactive),> 100 µM (inactive),> 100 µM (inactive),> 100 µM,–,> 100 µM (inactive),> 100 µM (inactive),> 100 µM (inactive),> 100 µM (inactive),> 100 µM (inactive),> 100 µM (inactive),> 100 µM (inactive),> 100 µM (inactive),> 100 µM (inactive),> 100 µM (inactive),> 100 µM (inactive)
C=CCn1c2ccccc2[n+]2cc([N+](=O)[O-])ccc12,46.2 µM (inactive),> 100 µM (inactive),32.1 µM (inactive),12.3 µM (inactive),27.2 µM (inactive),34.5 µM,30.5 µM (inactive),28.2 µM (inactive),20 µM (inactive),–,77.4 µM (inactive),74 µM (inactive),48.8 µM (inactive),–,> 100 µM (inactive),30.8 µM (inactive),50.9 µM (inactive),67.3 µM (inactive)
Cc1c2cccc-2c2cc(O)c3ccccc3c2n1-c1ccc(N(C)C)cc1,12.2 µM (inactive),14.6 µM (inactive),16 µM (inactive),16.1 µM (inactive),15.7 µM (inactive),5.37 µM,13.4 µM (inactive),–,4.28 µM (inactive),15.5 µM (inactive),3.37 µM (inactive),10.9 µM (inactive),11.7 µM (inactive),15.9 µM (inactive),10.1 µM (inactive),20.7 µM (inactive),–,–
CC(=O)OC1CC2C(=O)C(=O)C1(C)C2(C)C (centres undefined),> 100 µM (inactive),> 100 µM (inactive),–,> 100 µM (inactive),> 100 µM (inactive),> 100 µM,–,> 100 µM (inactive),> 100 µM (inactive),> 100 µM (inactive),> 100 µM (inactive),> 100 µM (inactive),> 100 µM (inactive),> 100 µM (inactive),> 100 µM (inactive),> 100 µM (inactive),> 100 µM (inactive),–
CCCc1cc2c(cc1O)CC[C@@H]1[C@@H]2CC[C@]2(C)[C@@H](O)CC[C@@H]12,13.6 µM (inactive),10.6 µM (inactive),11.3 µM (inactive),18.2 µM (inactive),–,4.98 µM,10.5 µM (inactive),5.6 µM (inactive),14.1 µM (inactive),10.7 µM (inactive),17.7 µM (inactive),19.5 µM (inactive),13.4 µM (inactive),13.2 µM (inactive),5.82 µM (inactive),3.95 µM (inactive),–,10.2 µM (inactive)
